According to patent US20210061859A1, “NTCP Inhibitor” (The University of Tokyo, priority 2018, published 2021):
Converted amounts (≈) assume the structure as drawn. Where two headings read alike, the source gives them in different places. Where a SMILES comes first, the peptide text is derived from it. Bridges are numbered along the chain shown (N, C = ends). [ ]: non-standard residue; d: D form. Sar = CNCC(=O)O

T1: human NTCP (Homo sapiens, UniProt Q14973)
T1 construct: made in house; host or cells: wheat germ cell-free protein synthesis system
T1 sequence (Q14973 1-349): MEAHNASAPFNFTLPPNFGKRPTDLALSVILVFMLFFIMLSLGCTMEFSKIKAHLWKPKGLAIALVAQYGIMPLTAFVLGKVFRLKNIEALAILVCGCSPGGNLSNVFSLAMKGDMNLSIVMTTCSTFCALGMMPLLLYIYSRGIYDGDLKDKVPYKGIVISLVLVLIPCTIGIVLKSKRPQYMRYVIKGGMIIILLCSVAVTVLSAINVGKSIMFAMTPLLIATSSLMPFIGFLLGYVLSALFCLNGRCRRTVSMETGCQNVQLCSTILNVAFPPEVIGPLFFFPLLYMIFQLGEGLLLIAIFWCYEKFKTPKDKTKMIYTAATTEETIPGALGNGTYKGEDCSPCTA

T2: human NTCP on cells (HepG2-hNTCP-C4 cells overexpressing the human NTCP gene; primary human hepatocytes) (human), Q14973
T2 chain: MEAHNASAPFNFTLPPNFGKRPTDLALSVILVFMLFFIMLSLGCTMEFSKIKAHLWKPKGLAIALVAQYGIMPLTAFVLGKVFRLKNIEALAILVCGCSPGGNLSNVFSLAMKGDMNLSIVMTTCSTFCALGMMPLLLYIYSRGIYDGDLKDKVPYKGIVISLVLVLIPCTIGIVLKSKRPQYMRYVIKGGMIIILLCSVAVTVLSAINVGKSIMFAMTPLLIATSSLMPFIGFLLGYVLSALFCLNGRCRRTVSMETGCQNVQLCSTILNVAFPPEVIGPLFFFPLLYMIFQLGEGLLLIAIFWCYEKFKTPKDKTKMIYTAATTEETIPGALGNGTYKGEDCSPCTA

T3: His-tagged recombinant NTCP protein (human sodium taurocholate cotransporting polypeptide) (human), Q14973
T3 chain: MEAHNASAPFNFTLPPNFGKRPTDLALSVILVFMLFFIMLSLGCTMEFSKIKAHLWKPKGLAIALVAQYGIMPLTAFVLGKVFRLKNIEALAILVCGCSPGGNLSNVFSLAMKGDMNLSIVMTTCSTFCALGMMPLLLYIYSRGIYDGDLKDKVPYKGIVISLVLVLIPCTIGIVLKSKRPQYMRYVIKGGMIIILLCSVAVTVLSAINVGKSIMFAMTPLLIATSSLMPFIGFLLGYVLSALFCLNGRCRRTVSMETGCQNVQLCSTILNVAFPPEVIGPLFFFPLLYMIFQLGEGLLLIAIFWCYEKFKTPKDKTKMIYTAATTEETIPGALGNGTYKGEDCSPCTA


Experiments:
human NTCP = molecular target: T1, human NTCP; experiment: Surface plasmon resonance binding to immobilized recombinant NTCP; settings: single-cycle kinetics, 1:1 binding model, NTCP immobilized on NTA-Ni2+
Protocol: (§1) FIG. 7 is a diagram showing the NTCP association constant of a peptide identified by first RaPID screening. A single-cycle reaction kinetics experiment was conducted using NTCP immobilized on surface (NTA-Ni^2+) involving varying concentrations of a cyclic peptide analyte. In each case, as shown in the drawing, the peptide was tested with 4-fold serial dilutions starting from the highest concentration of 200 or 1000 nM. A dissociation constant (KD) was determined using a 1:1 binding model.
as §1, with “9” for “7”, “focused library” for “first”, “association constant” for “reaction kinetics”
The association constant of each peptide for human NTCP was measured using a Biacore T200 apparatus (GE Healthcare Japan Corp.). The running buffer solution used was HBS-P+ (10 mM HEPES, 150 mM NaCl, and 0.05 vol % surfactant P20, pH 7.4) containing 0.1 vol % DMSO and 1 mM β-dodecyl-maltoside. 100 nM recombinant NTCP was immobilized on a NTA chip treated with Ni^2+ according to the manufacturer's instructions (baseline response: 1000 to 3000 refraction units). Peptides were injected as analytes at a flow rate of 60 μL/min, and association constants were modelled using a 1:1 binding model.

HBV genotype D = format: cell-based, hepatitis B virus; settings: primary human hepatocytes; for HBs antigen in the culture supernatant: peptide at 100 μM, 12 days after inoculation
Protocol: FIG. 2 is a diagram showing the anti-HBV effect of a peptide from initial screening. FIG. 2(a) is a schematic diagram of a HepG2-hNTCP-C4 infection experiment. HepG2-hNTCP-C4 cells were pretreated with a peptide for 2 hours and subsequently inoculated with HBV for 16 hours in the presence of the peptide. Free HBV and peptide were washed off. Then, the cells were further cultured for 12 days in the absence of the peptide, and HBV infection was evaluated on the basis of measurement of HBs antigen in the culture supernatant. The filled boxes and the broken-line boxes depict periods for which the treatment was performed and periods for which the treatment was not performed, respectively. […] HBV infection was evaluated by monitoring HBs antigen secreted into a culture supernatant on 12 days after inoculation by ELISA. In FIG. 2(c), a cell survival rate was measured by MTT assay.
FIG. 3 is a diagram showing the anti-HBV effect of a peptide by focused library screening. […] HBV infection was evaluated by measurement of HBe antigen (a), and a cell survival rate (b) was evaluated by MTT assay as shown in FIG. 2.
HBV genotype D used in this study (FIGS. 1 to 3) was derived from the culture supernatant of Hep38.7-Tet cells, and prepared by a known method (the method described in Tsukuda, S. et al. Dysregulation of retinoic acid receptor diminishes hepatocyte permissiveness to hepatitis B virus infection through modulation of sodium taurocholate cotransporting polypeptide (NTCP) expression. The Journal of biological chemistry 290, 5673-5684 (2015), and Ogura, N., Watashi, K., Noguchi, T. & Wakita, T. Formation of covalently closed circular DNA in Hep38.7-Tet cells, a tetracycline inducible hepatitis B virus expression cell line. Biochemical and biophysical research communications 452, 315-321 (2014)). Purified HBV (FIG. 1(d)) was prepared by ultrafiltration to remove an excess of components in FBS and medium. HBV genotypes A, B, and C and genotype C having the L180M/S202G/M204V mutations (nucleoside analog-resistant HBV) or G145R substitution (vaccine-escape HBV) (FIG. 4(d)) were prepared from the culture supernatant of HepG2 cells transfected with the corresponding expression plasmid. HBV was inoculated at 12,000 (FIGS. 1(a), 1(b), and 1(d)), 1000 to 2000 (FIG. 2(b)) or 500 (FIGS. 3(a) and 4(d)) genome equivalents (GEq)/cell in the presence of 4% polyethylene glycol 8000 (PEG8000) and incubated at 37° C. for 16 hours by a known method (the method described in Watashi, K. et al. Interleukin-1 and tumor necrosis factor-alpha trigger restriction of hepatitis B virus infection via a cytidine deaminase activation-induced cytidine deaminase (AID). The Journal of biological chemistry 288, 31715-31727 (2013)).
HBe antigen was detected by a chemiluminescence immunoassay (CLIA) (LSI Medience Corp.). HBs antigen was quantified by enzyme-linked immunosorbent assay (ELISA) as described in a known method (the method described in Watashi, K. et al. Interleukin-1 and tumor necrosis factor-alpha trigger restriction of hepatitis B virus infection via a cytidine deaminase activation-induced cytidine deaminase (AID). The Journal of biological chemistry 288, 31715-31727 (2013)).
Subsequently, the present inventors evaluated the effect of the 10 peptides described above on HBV infection in primary human hepatocytes. […] HBV infection was evaluated by measuring HBs antigen in the culture supernatant. […]

HepG2-hNTCP-C4 cells = settings: HBV infection assay
Protocol: HBs antigen secreted into a culture supernatant (a) and HBc antigen in the cells (b) were detected by ELISA and an immunofluorescence method, respectively. A cell survival rate was measured by quantifying total cellular DNA (c). […] Data is indicated by mean±SD. Statistical significance was determined by use of Student's t test as to all numbers (*P<0.05, **P<0.01, N.S.: not significant).

[1] = molecular target: T2, human NTCP on cells (HepG2-hNTCP-C4 …); experiment: cell-based or functional assay
[2] = molecular target: T3, His-tagged recombinant NTCP protein …; experiment: SPR (Biacore T200), single-cycle kinetics, His-NTCP on Ni2+-NTA chip, peptide as analyte, 1:1 model

Molecule | Kd (human NTCP; Kd) [nM] | 50% inhibitory concentration (IC50), HBs antigen in culture supernatant, HBV infection assay [1] [µM] | Kd [2] [nM] | other results
CC[C@H](C)[C@@H]1NC(=O)[C@H](C)NC(=O)[C@H](Cc2c[nH]c3ccccc23)NC(=O)[C@H](Cc2c[nH]c3ccccc23)NC(=O)[C@@H](Cc2ccc(O)cc2)NC(=O)CSC[C@@H](C(=O)NCC(N)=O)NC(=O)[C@@H]2CCCN2C(=O)[C@H](Cc2c[nH]c3ccccc23)NC(=O)[C@H]([C@@H](C)O)NC(=O)[C@H](Cc2ccccc2)NC(=O)[C@H](C(C)C)NC(=O)[C@H](Cc2c[nH]cn2)NC(=O)[C@H]([C@@H](C)CC)NC(=O)[C@H](Cc2c[nH]cn2)NC(=O)[C@@H]2CCCN2C(=O)[C@H](CC(N)=O)NC1=O [D2] ({CH2CO}-[dY]WWAINPHIHVFTWPCG-NH2; thioether N-16) | 14 |  |  | HBs antigen in the culture supernatant (HBV genotype D): most active
CC[C@H](C)[C@@H]1NC(=O)[C@H](Cc2ccc(O)cc2)NC(=O)CSC[C@@H](C(=O)N[C@H](C(N)=O)[C@@H](C)O)NC(=O)[C@H](Cc2ccc(O)cc2)NC(=O)[C@H]([C@@H](C)CC)NC(=O)[C@H](C(C)C)NC(=O)[C@H](Cc2ccc(O)cc2)NC(=O)CNC(=O)[C@@H]2CCCN2C(=O)[C@H](Cc2c[nH]c3ccccc23)NC(=O)[C@H]([C@@H](C)CC)NC(=O)[C@H](Cc2c[nH]c3ccccc23)NC1=O [WL2] ({CH2CO}-YIWIWPGYVIYCT-NH2; thioether N-12) |  |  |  | Kd (human NTCP; read-out: Kd): 157 nM; IC50 (HBV genotype D; purified HBV as inoculum, HBs antigen in culture supernatant, read-out: 50% inhibitory concentrations (IC50), HBs antigen): 2540 ± 110 nM; solubility: ~30 µM (≈ 51.5 µg/mL); cytotoxicity (cell survival rate, total cellular DNA) (HepG2-hNTCP-C4 cells): without marked cytotoxicity
CC[C@H](C)[C@@H]1NC(=O)[C@H](Cc2c[nH]c3ccccc23)NC(=O)[C@H](CC(C)C)NC(=O)[C@H](Cc2ccc(O)cc2)NC(=O)CSC[C@@H](C(=O)NCC(N)=O)NC(=O)CNC(=O)[C@H](CC(C)C)NC(=O)[C@H](CC(=O)O)NC(=O)[C@H](Cc2ccccc2)NC(=O)[C@H]([C@@H](C)O)NC(=O)[C@H](Cc2ccc(O)cc2)NC(=O)[C@H](Cc2c[nH]c3ccccc23)NC(=O)[C@H](CC(N)=O)NC(=O)[C@H](CCC(N)=O)NC(=O)[C@H](Cc2c[nH]cn2)NC(=O)[C@H](Cc2ccccc2)NC1=O [L3] ({CH2CO}-YLWIFHQNWYTFDLGCG-NH2; thioether N-16) | 13 |  |  | 
CC(C)C[C@@H]1NC(=O)[C@H](Cc2ccc(O)cc2)NC(=O)CSC[C@@H](C(=O)NCC(N)=O)NC(=O)[C@H](CC(C)C)NC(=O)[C@H](CO)NC(=O)[C@H]([C@@H](C)O)NC(=O)[C@H](C(C)C)NC(=O)[C@H]([C@@H](C)O)NC(=O)[C@H](Cc2c[nH]c3ccccc23)NC(=O)[C@H](CC(N)=O)NC(=O)[C@H](CO)NC(=O)[C@H](Cc2c[nH]cn2)NC(=O)[C@H](Cc2c[nH]c3ccccc23)NC(=O)[C@H]([C@@H](C)O)NC(=O)[C@H](Cc2c[nH]c3ccccc23)NC(=O)[C@H]([C@@H](C)O)NC(=O)[C@H](Cc2ccc(O)cc2)NC1=O [L1] ({CH2CO}-YLYTWTWHSNWTVTSLCG-NH2; thioether N-17) | 21 |  |  | 
CC[C@H](C)[C@@H]1NC(=O)[C@H](Cc2c[nH]c3ccccc23)NC(=O)[C@H]([C@@H](C)CC)NC(=O)[C@H](Cc2ccccc2)NC(=O)[C@H](CO)NC(=O)[C@H](CC(N)=O)NC(=O)[C@H](CCC(N)=O)NC(=O)[C@H](Cc2c[nH]c3ccccc23)NC(=O)[C@H]([C@@H](C)O)NC(=O)[C@H](Cc2c[nH]c3ccccc23)NC(=O)[C@H]([C@@H](C)O)NC(=O)[C@H](Cc2ccc(O)cc2)NC(=O)CSC[C@@H](C(=O)N[C@H](C(N)=O)[C@@H](C)O)NC(=O)[C@H](Cc2ccc(O)cc2)NC1=O [WL5] ({CH2CO}-YTWTWQNSFIWIYCT-NH2; thioether N-14) | 10 |  |  | 
CC[C@H](C)[C@@H]1NC(=O)[C@@H](Cc2ccc(O)cc2)NC(=O)CSC[C@@H](C(=O)NCC(N)=O)NC(=O)[C@H](CO)NC(=O)[C@H](Cc2ccc(O)cc2)NC(=O)[C@H](CC(C)C)NC(=O)[C@H](CC(C)C)NC(=O)[C@H](Cc2ccccc2)NC(=O)[C@H](CC(C)C)NC(=O)[C@H](Cc2c[nH]cn2)NC(=O)[C@H](CC(C)C)NC(=O)[C@H](CCC(=O)O)NC(=O)[C@@H]2CCCN2C(=O)[C@H](Cc2ccc(O)cc2)NC(=O)[C@H](C(C)C)NC(=O)[C@H](CC(C)C)NC1=O [D4] ({CH2CO}-[dY]ILVYPELHLFLLYSCG-NH2; thioether N-16) | 2270 |  |  | HBs antigen in the culture supernatant (HBV genotype D): most active
CC[C@H](C)[C@@H]1NC(=O)CN(C)C(=O)[C@H](CO)NC(=O)[C@H](Cc2ccc(O)cc2)NC(=O)[C@H](CCCCN)NC(=O)[C@H](Cc2ccc(O)cc2)NC(=O)[C@H]([C@@H](C)O)NC(=O)[C@H](Cc2ccc(O)cc2)NC(=O)CSC[C@@H](C(=O)N[C@H](C(N)=O)[C@@H](C)O)NC(=O)[C@H](Cc2c[nH]c3ccccc23)NC(=O)[C@H]([C@@H](C)CC)NC(=O)[C@H](Cc2c[nH]c3ccccc23)NC(=O)[C@H]([C@@H](C)CC)NC(=O)[C@H](Cc2c[nH]c3ccccc23)NC1=O [WL1] ({CH2CO}-YTYKYS[Sar]IWIWIWCT-NH2; thioether N-14) | 360 |  |  | 
YFIIVGTWTWTWSCT (modifications not checked) [WD1] |  | 0.85 | 15 | 
YIWIWPGYVIYCT (modifications not checked) [WL2] |  | 2.54 | 157 | 
YVIWIWPNHFYYCT (modifications not checked) [WL4] |  | 0.66 | 42 | 
